Results on 1 compound are retold here after patent US20240075093A1, “COMPOSITIONS AND METHODS OF TREATING A PI3K MEDIATED DISEASE” (VIRGINIA TECH INTELLECTUAL PROPERTIES, INC., priority 2020, published 2024).

In one data set the target is p110c (Homo sapiens, UniProt P42336). Description: PI3K subunit activity ELISA. The format is biochemical. Conditions: 100 nM. As for the experimental part: (§1) Relative activity is the ratio of respective treated groups to their non-treated controls.
(§2) Applicant also included a control scramble peptide containing the antennapedia sequence followed by the amino acid sequence of Ante-Selectide-18 randomly scrambled. […] Applicant reports that this drug is not effective at inhibiting the kinase activity of p110b or other PI3K subunits at 100 nM, showing the promise of the Ante-Selectide-18 peptide as a potent selective p110b inhibitor at a low dose.
For orientation: An ELISA detects its analyte on a solid surface through an enzyme-linked reagent.

The next data set addresses p110γ (Homo sapiens, UniProt P48736). Description: PI3K subunit activity ELISA. In kind it is biochemical. As to conditions: 100 nM. As for the experimental part: as §1, §2
The target in another data set is p110δ (Homo sapiens, UniProt O00329). In words: PI3K subunit activity ELISA. In kind it is biochemical. As to conditions: 100 nM. As for the experimental part: as §1, §2
p110δ, sequence (O00329 whole entry): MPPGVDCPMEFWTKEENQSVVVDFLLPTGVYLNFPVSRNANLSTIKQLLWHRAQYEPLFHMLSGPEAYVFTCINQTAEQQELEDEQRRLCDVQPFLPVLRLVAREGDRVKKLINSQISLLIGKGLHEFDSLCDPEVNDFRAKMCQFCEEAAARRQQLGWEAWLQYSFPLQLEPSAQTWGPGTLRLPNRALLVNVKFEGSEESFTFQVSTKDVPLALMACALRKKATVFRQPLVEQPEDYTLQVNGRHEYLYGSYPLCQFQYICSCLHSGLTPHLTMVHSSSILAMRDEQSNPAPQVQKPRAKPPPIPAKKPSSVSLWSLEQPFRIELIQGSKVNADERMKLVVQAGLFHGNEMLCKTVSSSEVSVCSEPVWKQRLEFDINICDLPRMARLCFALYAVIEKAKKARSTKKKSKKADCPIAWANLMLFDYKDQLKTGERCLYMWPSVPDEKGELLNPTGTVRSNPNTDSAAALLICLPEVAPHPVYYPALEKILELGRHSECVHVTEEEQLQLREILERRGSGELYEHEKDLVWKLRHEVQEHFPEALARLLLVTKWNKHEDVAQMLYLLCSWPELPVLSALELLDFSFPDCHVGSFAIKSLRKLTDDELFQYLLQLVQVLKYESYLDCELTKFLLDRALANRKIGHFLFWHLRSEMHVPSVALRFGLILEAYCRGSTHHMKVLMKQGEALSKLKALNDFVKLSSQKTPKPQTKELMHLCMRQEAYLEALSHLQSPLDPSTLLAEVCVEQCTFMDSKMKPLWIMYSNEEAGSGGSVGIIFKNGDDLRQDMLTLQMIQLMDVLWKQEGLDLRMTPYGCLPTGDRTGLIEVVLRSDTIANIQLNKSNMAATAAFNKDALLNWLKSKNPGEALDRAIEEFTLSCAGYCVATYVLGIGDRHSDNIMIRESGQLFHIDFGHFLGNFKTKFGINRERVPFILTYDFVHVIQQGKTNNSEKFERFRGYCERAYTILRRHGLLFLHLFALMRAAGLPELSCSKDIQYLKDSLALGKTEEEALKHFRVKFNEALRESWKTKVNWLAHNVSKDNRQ
p110δ, sequence (P27986 whole entry partner): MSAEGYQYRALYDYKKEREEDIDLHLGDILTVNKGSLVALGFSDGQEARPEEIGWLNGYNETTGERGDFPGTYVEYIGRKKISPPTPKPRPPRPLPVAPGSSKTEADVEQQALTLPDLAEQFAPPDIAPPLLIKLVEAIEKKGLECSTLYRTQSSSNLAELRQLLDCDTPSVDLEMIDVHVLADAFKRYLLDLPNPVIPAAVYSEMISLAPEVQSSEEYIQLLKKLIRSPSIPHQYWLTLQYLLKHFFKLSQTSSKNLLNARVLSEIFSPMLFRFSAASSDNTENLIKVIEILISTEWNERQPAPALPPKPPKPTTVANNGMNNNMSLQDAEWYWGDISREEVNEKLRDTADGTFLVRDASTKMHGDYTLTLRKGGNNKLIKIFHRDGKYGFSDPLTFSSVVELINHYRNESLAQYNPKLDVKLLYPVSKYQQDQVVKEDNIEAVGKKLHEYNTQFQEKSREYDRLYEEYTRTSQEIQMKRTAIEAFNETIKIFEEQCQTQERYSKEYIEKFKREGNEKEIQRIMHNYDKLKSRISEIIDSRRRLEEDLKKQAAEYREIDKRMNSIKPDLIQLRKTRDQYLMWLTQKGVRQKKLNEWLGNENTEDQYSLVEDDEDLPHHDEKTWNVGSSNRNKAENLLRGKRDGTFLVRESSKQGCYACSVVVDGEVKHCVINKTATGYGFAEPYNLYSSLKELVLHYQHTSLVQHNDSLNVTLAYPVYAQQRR
A further data set relates to U87MG cells. Description: MTS cell viability assay. In kind it is cell-based, human. Conditions: 20 uM TGX-221 and 50 uM TMZ, 4 days, MTS. As for the experimental part: (§3) Cell viability was measured by the MTS assay. P values were determined using the student t test or one-way ANOVA. Error bars represent three independent experiments.
Cell viability was determined using the MTS viability assay. The vehicle DMSO was the control and set as 100%. Treated cells were normalized to DMSO-treated cells. […] (FIG. 43D) Scores of Excess Over Bliss in FIG. 43C calculated using the Bliss Independence model. One-way ANOVA and student t test were used to determine statistical significance.
(§4) Cell viability was determined by the MTS cell viability assay (Promega) as described previously 21,24-27. In brief, 250 to 1,000 cells were plated in the wells of a 96-well plate-based upon the cell growth rate. Because the drug treatment usually takes 6-7 days, fast-growing cells could be over-grown if plated at a high cell density. For αCT1 treatment experiments, Applicant intended to plate cells at a low density to minimize the formation of gap junctions, and thus, more Cx43-hemichannels can be present. […] At each hour time point, the absorbance at 490 nm was measured using a FilterMax F3 microplate reader (Molecular Devices, LLC) according to the manufacturer's instructions. Percent cell viability was obtained by dividing the absorbance of treatment groups to those of untreated and respective vehicle control groups.

For another data set, the system named is astrocytes. Description: MTS cell viability assay. The format is cell-based, human. As to conditions: 20 uM TGX-221 and 50 uM TMZ, 4 days. As for the experimental part:
as §3
(FIG. 46A) The effect of the αCT1/GSK/TMZ combo in VTC-103 cells. […] (FIG. 46B) The effect of the αCT1/GSK/TMZ combo in LN229 cells. (FIG. 46C) EOB scores of drug combinations in VTC-103 and LN229 cells. […] (FIG. 46E) EOB scores of drug combinations in astrocytes. One-way ANOVA with Dunnett test for correction of multiple comparisons or Student's t test was used to determine statistical significance. *: P<0.05; ns: not significant. Drug combinations with strong synergistic effect were marked in red.
as §4, with “density.” for “density. For αCT1 treatment experiments, Applicant intended to plate cells at a low density to minimize the formation of gap junctions, and thus, more Cx43-hemichannels can be present.”
(Formazan colour is commonly taken as a measure of viable cells.)

Another data set relates to LN229/GSCs. Description: wound-healing (migration) assay. In kind it is cell-based. Conditions: 8 μM, 24 hours. As for the experimental part: (§5) (FIG. 8A) Wound-healing assay. Cells were plated confluently and then treated with PI3K isoform-selective inhibitors at 8 μM for 24 hours. Cells were imaged at 0- and 24-hour time point. Images of 24-hour time point are shown. Scale bar: […]. (FIG. 8B-8D) Quantification of migration distance. Images from three different areas were analyzed using Image J. Migration distances were obtained by subtracting 24-hour measurements with those of 0-hour.

A further data set relates to SF295 cells. In words: wound-healing (migration) assay. The format is cell-based. As to conditions: 8 μM, 24 hours. As for the experimental part: as §5
Data set [1] has as its system PI3K/AKT signaling in SF295 cells. Description: immunoblotting of PI3K/AKT signaling in SF295 cells. The format is cell-based. On the technique in general: In western blotting, separated proteins are transferred to a membrane and probed.

p110c, sequence (P42336 whole entry): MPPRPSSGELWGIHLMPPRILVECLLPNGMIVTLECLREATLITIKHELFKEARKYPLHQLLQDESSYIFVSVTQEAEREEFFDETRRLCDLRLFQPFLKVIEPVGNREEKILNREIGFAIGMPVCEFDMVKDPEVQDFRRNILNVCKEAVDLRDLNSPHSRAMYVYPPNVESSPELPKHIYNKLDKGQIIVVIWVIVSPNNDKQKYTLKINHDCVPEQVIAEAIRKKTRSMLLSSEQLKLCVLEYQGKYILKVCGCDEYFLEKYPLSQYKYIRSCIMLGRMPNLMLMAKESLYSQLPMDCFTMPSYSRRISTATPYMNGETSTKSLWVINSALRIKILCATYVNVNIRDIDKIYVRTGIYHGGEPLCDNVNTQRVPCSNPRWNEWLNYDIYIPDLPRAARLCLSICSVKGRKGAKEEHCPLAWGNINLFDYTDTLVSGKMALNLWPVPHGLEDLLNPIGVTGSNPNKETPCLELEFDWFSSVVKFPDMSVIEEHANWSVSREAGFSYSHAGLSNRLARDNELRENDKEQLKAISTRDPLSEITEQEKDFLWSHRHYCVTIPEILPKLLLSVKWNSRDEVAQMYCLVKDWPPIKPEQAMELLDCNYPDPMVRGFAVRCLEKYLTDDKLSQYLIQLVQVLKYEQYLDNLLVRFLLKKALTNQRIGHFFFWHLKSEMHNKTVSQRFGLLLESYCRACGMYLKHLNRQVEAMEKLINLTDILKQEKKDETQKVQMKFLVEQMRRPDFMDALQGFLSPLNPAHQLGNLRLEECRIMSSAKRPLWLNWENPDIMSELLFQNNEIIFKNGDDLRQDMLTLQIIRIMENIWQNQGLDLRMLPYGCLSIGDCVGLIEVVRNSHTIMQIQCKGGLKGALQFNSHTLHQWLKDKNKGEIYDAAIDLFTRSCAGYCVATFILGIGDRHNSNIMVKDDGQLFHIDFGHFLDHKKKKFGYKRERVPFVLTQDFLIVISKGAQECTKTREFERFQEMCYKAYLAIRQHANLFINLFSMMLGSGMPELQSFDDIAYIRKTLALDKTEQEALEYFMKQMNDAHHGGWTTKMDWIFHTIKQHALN
p110γ, sequence (P48736 whole entry): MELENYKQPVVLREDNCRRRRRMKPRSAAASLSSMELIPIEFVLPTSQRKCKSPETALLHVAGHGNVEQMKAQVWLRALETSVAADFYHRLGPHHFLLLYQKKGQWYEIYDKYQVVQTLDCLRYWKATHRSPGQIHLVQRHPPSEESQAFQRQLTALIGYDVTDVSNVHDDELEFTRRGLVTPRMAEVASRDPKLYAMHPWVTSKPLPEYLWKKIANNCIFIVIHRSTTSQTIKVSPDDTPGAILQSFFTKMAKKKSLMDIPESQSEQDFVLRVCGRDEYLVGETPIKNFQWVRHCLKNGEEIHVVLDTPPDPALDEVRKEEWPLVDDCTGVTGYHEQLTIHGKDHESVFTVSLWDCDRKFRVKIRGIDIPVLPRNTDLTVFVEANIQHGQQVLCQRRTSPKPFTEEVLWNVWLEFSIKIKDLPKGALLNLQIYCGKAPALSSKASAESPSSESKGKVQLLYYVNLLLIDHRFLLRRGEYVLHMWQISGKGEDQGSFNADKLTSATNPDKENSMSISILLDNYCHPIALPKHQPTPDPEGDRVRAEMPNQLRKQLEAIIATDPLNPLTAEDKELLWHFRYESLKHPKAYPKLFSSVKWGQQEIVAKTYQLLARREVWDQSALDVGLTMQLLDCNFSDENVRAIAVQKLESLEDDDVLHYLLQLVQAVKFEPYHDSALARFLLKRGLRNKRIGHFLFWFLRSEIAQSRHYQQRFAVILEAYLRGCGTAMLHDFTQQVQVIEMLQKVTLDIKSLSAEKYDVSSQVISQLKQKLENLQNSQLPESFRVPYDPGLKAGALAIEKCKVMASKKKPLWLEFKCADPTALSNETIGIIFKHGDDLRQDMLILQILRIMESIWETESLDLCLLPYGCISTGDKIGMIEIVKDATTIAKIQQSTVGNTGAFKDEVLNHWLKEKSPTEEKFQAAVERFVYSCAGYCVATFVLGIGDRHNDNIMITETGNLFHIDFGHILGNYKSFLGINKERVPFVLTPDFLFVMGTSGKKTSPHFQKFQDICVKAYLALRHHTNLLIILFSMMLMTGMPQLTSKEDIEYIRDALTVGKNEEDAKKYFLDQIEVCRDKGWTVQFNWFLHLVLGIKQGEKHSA

Consider `Cc1cc(C(C)Nc2ccccc2)c2nc(N3CCOCC3)cc(=O)n2c1` (stereo not shown) [TGX-221], for which, on p110c, the “activity of PI3K subunit p110c” value is given as “not effective”. For the same compound, the “activity of PI3K subunit p110γ” value on p110γ is reported as “not effective”. In addition, the “activity of PI3K subunit p110δ” value on p110δ is given as “not effective”. Further, the TMZ sensitivity result with U87MG cells is given as “increased TMZ sensitivity”. In the data set with astrocytes, the “effect of TGX-221 plus TMZ combination on astrocytes” value is on record as “did not harm astrocytes”. In addition, the cell migration result in the data set on LN229/GSCs is given as “inhibited the migration”. In addition, the cell migration result in the data set with SF295 cells is listed as “inhibited the migration”. Also, in data set [1] (8 μM TGX-221, 24 hours), the “AKT and RAC1/CDC42 activity” value is listed as “inactivated”; the “protein levels of MMP2” value is “not”; the “protein levels of MMP9” value is listed as “decreased protein levels”. Also, in data set [1] (25 μM TGX-221, 96 hours), the “BIM-EL, BIM-L, BIM-S (apoptotic forms of BIM)” value was “remarkable increase”; the “cleaved caspase 3 (c-CASP3)” value is on record as “remarkable increase”; the “levels of pFOXO3T32” value is reported as “significantly decreased”.
